For one assay, the system named is MV-4-11 cells. Briefly: Oncology cell growth assay MV-4-11 (CellTiter Glo). In kind it is cell-based. The source says: Published bromodomain inhibitors JQ1 and iBET 151 have shown activity in variety of cancer cells such leukemia and lymphoma, multiple myeloma cells, NUT midline carcinoma and glioblastoma cells (Dawson M A et al. 2011; Delmore J E 2011; Chen Z et al. 2013; Filippakopoulos P et al. 2010; Mertz J A et al. 2011; Ott C J et al. 2012). In this study, we test compounds in different cancer cell lines. MV-4-11 and MOLM-13 are AML cell lines harboring a MLL-AF4 and MLL-AF9 translocation, respectively. MM.1S is a multiple myeloma cell line. SK-N-AS, IMR-32 and SK-N-BE(2) are neuroblastoma cell lines. IMR-32 and SK-N-BE(2) cell lines harbor MYCN amplifications.
MV-4-11, MM.1S, IMR-32, SK-N-AS and SK-N-BE(2) were obtained from ATCC (IL, USA) and MOLM-13 were purchased from DSMZ (Braunschweig, German). Cells are cultured as recommended by their sources. For growth inhibition studies 3000 cells are seeded in wells of a 96-well plate in 75 μL of culture media. After several hours, growth media containing compounds of formula (I) are added to the wells. Compound at a maximal concentration of 5 mM was serially diluted 1:3 for a total of 8 point titration with DMSO as a control. A 1 μL aliquot of each dilution point is added to 249 μL growth media and 75 μL is added to each well containing cells, providing 10 μM compound at the maximum concentration point. The final concentration of DMSO in all wells is 0.2%. Cells are incubated for 72 hours, and 25 μL of CellTiter Glo Reagent (Promega GA, USA) is added to each well. Plates are shaken for approximately 10 minutes and chemiluminescent signal is read on Tecan microplate reader. The measured luminescence correlates directly with cell number.
All data is normalized to the mean of eight DMSO high control wells on each plate. A four parameter curve fit of the following formula was then applied: Y=a+(b−a)/(1+(x/c)^d) Where ‘a’ is the minimum, ‘b’ is the maximum, ‘c’ is the pIC50 and ‘d’ is the Hill slope. […] Myc Reporter Assay
For orientation: ATP-based viability assays read luminescence as a measure of living cells.

For a further assay, the system named is bromodomain. As to the kind of experiment: at least one of the bromodomain cell assays of Example 57. The settings on record: read-out: IC50 in at least one of the bromodomain cell assays. It is filed as cell-based.
The target of the next assay is BRD4-BD12 (1-477) (Homo sapiens (Human), UniProt O60885). As to the kind of experiment: Alphascreen binding assay BRD4-BD12. The settings on record: BRD4(1 2) H4; read-out: Biochemical activity (IC50 μM) BRD4(1 2) H4. The procedure:
Binding of compounds of formula (I) with bromodomain 2, 3 4 was assessed using Alphascreen binding assay. The inhibition of the interaction between bromodomain and its acetylated target protein (Filippakopoulos P et al. 2012) was measured quantitatively using recombinant BRD proteins, an acetylated Histone 4 peptide and AlphaScreen™ technology. In absence of inhibition the BRD protein bound to AlphaScreen™ nickel chelate acceptor beads can interact with the acetylated Histone 4 peptide which is immobilized by the AlphaScreen™ Streptavidin coated beads. This interaction brings donor and acceptor beads in proximity. The close proximity allows the singlet oxygen produced by laser excitation of the donor beads to reach the acceptor beads and generate a luminescence signal.
Recombinant human bromodomains containing the N-terminal bromodomain (BRD2-BD1 (71-194), BRD3-BD1 (24-144) and BRD4-BD1 (44-164)) or dual bromodomains (BRD4-BD12 (1-477), BRD4-BD12 (1-472)) were prepared and purified as described in protein expression and purification session. The peptide is human Histone H41-21K5AcK8AcK12AcK16Ac-Biotin (Anaspec CA, USA).
Protocol for BRD2, BRD3 and BRD4 assay: All components are prepared in buffer composed of 50 mM HEPES pH 7.5, 100 mM NaCl, 0.01% bovine serum albumin (“BSA”), 0.01% Triton X-100, 2 mM dithiothreitol (“DTT”). 7 μL of Bromodomain protein and 7 μL of peptide are added to wells containing 1 μL of various concentrations of test compounds of formula (I) or DMSO vehicle in an Alphaplate (PerkinElmer GA, USA) and incubated for 1 hour at room temperature. 4 μL donor and acceptor bead mixture is then added with final concentrations of 7.5 μg/ml. 30 minutes after bead addition, Alpha signal is read on the Envision spectrometer (λEx 680 nm, λEm 520-620 nm). Final concentrations of bromodomain proteins and peptide are as shown below.
All data was normalized to the mean of 16 high and 16 low control wells on each plate. A four parameter curve fit of the following formula was then applied: Y=a+(b−a)/(1+(x/c)^d) Where ‘a’ is the minimum, ‘b’ is the maximum, ‘c’ is the pIC50 and ‘d’ is the Hill slope. Protein Expression and Purification
Recombinant human bromodomains containing the N-terminal bromodomain (BRD2-BD1 (71-194), BRD3-BD1 (24-144) and BRD4-BD1 (44-164)) or dual bromodomains (BRD4-BD12 (1-477), BRD4-BD12 (1-472)) were expressed in E. coli cells (in a modified pET vector) with an N-terminal six-His tag and purified using a combination of both IMAC (Ni-affinity) and size exclusion chromatography steps.
Recombinant BRD proteins were expressed using the E. coli strain BL21-CodonPlus (DE3) (Agilent Technologies CA, USA). Cells were grown in Terrific Broth (TB) media to an OD600 of 1.2 at 37° C. at which temperature was reduced to 25° C., protein was induced with 1.0 mM ispropyl-β-D-thiogalactopyranoside (“IPTG”) for 12-18 hours and harvested by centrifugation at 8000×g for 20 minutes. Cells were re-suspended in 0.1M K2PO4 pH 8.0, 250 mM NaCl, 10% Glycerol, 0.75% NP-40, 25 mM Imidazole, 5 mM beta-mercaptoethanol (“BME”) with 0.2 mg/ml Lysosyme, 2.0 mM phenylmethanesulfonyl fluoride (“PMSF”), 25 μg/ml DNAse I, incubated on ice for 30 minutes and lyzed with a cell disruptor (MicroFluidics MA, USA). The lysate was clarified by centrifugation at 20,000×g for 2 hours. The protein was captured with Ni-NTA resin (Life Technologies, USA). Contaminating proteins were washed off with 25 mM Tris-HCl pH 8.3, 250 mM NaCl, 12% Glycerol and 50 mM Imidazole. Following 3× wash steps, protein was eluted step wise using a 50 mM HEPES pH 7.5, 500 mM NaCl and 400 mM Imidazole. The protein was further purified using Gel Filtration column 26/600 Superdex 200 (GE Biosciences NJ, USA) in 50 mM HEPES pH 7.5, 250 mM NaCl. The protein was aliquoted and flash-frozen in liquid Nitrogen.
On the technique in general: Alpha assays give light when donor and acceptor beads are brought close together.

[1] abbreviates: at least one of the bromodomain cell assays described in Example 57.
The mark [2] stands for this setting: Homo sapiens, MV4-11, 72 h; read-out: Cell activity (IC50 μM) MV-4-11 3d-Growth.
Setting [3] is: Homo sapiens, MV4-11, 72 h, read-out: Cell activity (IC50 μM) MV-4-11 3d-Growth.
[4] abbreviates: Homo sapiens, MV4-11, 72 h; MV-4-11, 3d growth; read-out: Cell activity (IC50 μM) MV-4-11 3d-Growth.

Molecules are shown by their SMILES. Like-named read-outs stand apart in the source and are kept apart here.

For `Cc1noc(C)c1-c1cnc2c(-c3cnn(C)c3)cn(C(=O)C3CCC(F)(F)CC3)c2c1` [P-0208], the IC50 was 1 to 10 µM in the assay on MV-4-11 cells (MV-4-11 3d-Growth; read-out: Cell activity (IC50 μM) MV-4-11 3d-Growth) and < 10 µM in the assay with bromodomain (setting [1]).

As for `[2H]C([2H])(C1CCC(F)(F)CC1)n1cc(-c2cnn(CC(F)(F)F)c2)c2ncc(-c3c(C)noc3C)cc21` [P-0221, 4-[1-[dideuterio-(4,4-difluorocyclohexyl)methyl]-3-[1-(2,2,2-trifluoroethyl)pyrazol-4-yl]pyrrolo[3,2-b]pyridin-6-yl]-3,5-dimethyl-isoxazole], the IC50 is < 1 µM with MV-4-11 cells (setting [2]) and < 10 µM in the assay on bromodomain (setting [1]).

Regarding `COc1ccc(-c2cnc3c(-c4cnn(C(F)F)c4)cn(CC4CCC(F)(F)CC4)c3c2)cn1` [P-0358, 1-[(4,4-difluorocyclohexyl)methyl]-3-[1-(difluoromethyl)pyrazol-4-yl]-6-(6-methoxy-3-pyridyl)pyrrolo[3,2-b]pyridine], the IC50 is 10 to 200 µM with MV-4-11 cells (setting [2]) and < 10 µM in the assay with bromodomain (setting [1]).

On to `CNC(=O)c1ccc(-c2cnc3ccn(CC4CCC(F)(F)CC4)c3c2)cn1` [P-0359, 5-[1-[(4,4-difluorocyclohexyl)methyl]pyrrolo[3,2-b]pyridin-6-yl]-N-methyl-pyridine-2-carboxamide], for which the IC50 is 10 to 200 µM in the assay with MV-4-11 cells (setting [2]) and < 10 µM in the assay with bromodomain (setting [1]).

Consider `Cc1noc(C)c1-c1cnc2c(-c3ccc(C(=O)O)cc3)cn(C(C)c3ccccn3)c2c1` (stereo not shown) [P-0369, 4-[6-(3,5-dimethylisoxazol-4-yl)-1-[1-(2-pyridyl)ethyl]pyrrolo[3,2-b]pyridin-3-yl]benzoic acid], for which the IC50 is < 1 µM in the assay with MV-4-11 cells (setting [3]) and < 10 µM in the assay on bromodomain.

As for `CNC(=O)c1ccc(-c2cn(CC3(F)CCC(F)(F)CC3)c3cc(-c4c(C)noc4C)cnc23)cn1` [P-0380, 5-[6-(3,5-dimethylisoxazol-4-yl)-1-[(1,4,4-trifluorocyclohexyl)methyl]pyrrolo[3,2-b]pyridin-3-yl]-N-methyl-pyridine-2-carboxamide], the IC50 at BRD4-BD12 (1-477) and in the assay on MV-4-11 cells (setting [2]) was < 1 µM each time.

For the compound `Cc1noc(C)c1-c1cnc2c(-c3ccc(C(=O)O)cc3)cn([C@H](C)c3ccccn3)c2c1` [P-0510, 4-[6-(3,5-dimethylisoxazol-4-yl)-1-[(1R)-1-(2-pyridyl)ethyl]pyrrolo[3,2-b]pyridin-3-yl]benzoic acid], the IC50 was < 1 µM in the assay on MV-4-11 cells (setting [3]) and < 10 µM in the assay with bromodomain.

For `Cc1noc(C)c1-c1cnc2c(-c3ccc(C(=O)O)cc3)cn([C@@H](C)c3ccccn3)c2c1` [P-0511, 4-[6-(3,5-dimethylisoxazol-4-yl)-1-[(1S)-1-(2-pyridyl)ethyl]pyrrolo[3,2-b]pyridin-3-yl]benzoic acid], the IC50 in the assay with MV-4-11 cells (setting [3]) is < 1 µM; with bromodomain it was < 10 µM.

With `Cc1noc(C)c1-c1cnc2c(-c3ccc(C(=O)O)cc3)cn(CC3CC4(CCC4)C3)c2c1` [P-0603, 4-[6-(3,5-dimethylisoxazol-4-yl)-1-(spiro[3.3]heptan-6-ylmethyl)pyrrolo[3,2-b]pyridin-3-yl]benzoic acid], the IC50 in the assay on MV-4-11 cells (setting [4]) is < 1 µM; in the assay on bromodomain (setting [1]), < 10 µM.

With `[2H]c1c([2H])c([2H])c(C([2H])(n2cc(-c3ccc(C(=O)OC)cc3)c3ncc(-c4c(C)noc4C)cc32)C([2H])([2H])[2H])c([2H])c1[2H]` (stereo not shown) [P-0605, methyl 4-[6-(3,5-dimethylisoxazol-4-yl)-1-[1,2,2,2-tetradideuterio-1-(2,3,4,5,6-pentadeuteriophenyl)ethyl]pyrrolo[3,2-b]pyridin-3-yl]benzoate], the values for the IC50 with MV-4-11 cells (setting [4]) and in the assay on bromodomain (setting [1]) were < 1 µM and < 10 µM, respectively.

Turning to `[2H]c1c([2H])c([2H])c(C([2H])(n2cc(-c3cnn(CC(F)(F)F)c3)c3ncc(-c4c(C)noc4C)cc32)C([2H])([2H])[2H])c([2H])c1[2H]` (stereo not shown) [P-0606], the values for the IC50 with MV-4-11 cells (setting [4]) and with bromodomain (setting [1]) were < 1 µM and < 10 µM, respectively.

Regarding `[2H]c1c([2H])c([2H])c(C([2H])(n2cc(-c3ccc(C(=O)O)cc3)c3ncc(-c4c(C)noc4C)cc32)C([2H])([2H])[2H])c([2H])c1[2H]` (stereo not shown) [P-0607, 4-[6-(3,5-dimethylisoxazol-4-yl)-1-[1,2,2,2-tetradeuterio-1-(2,3,4,5,6-pentadeuteriophenyl)ethyl]pyrrolo[3,2-b]pyridin-3-yl]benzoic acid], the IC50 in the assay with MV-4-11 cells (setting [4]) is < 1 µM; with bromodomain (setting [1]), < 10 µM.

For `Cc1noc(C)c1-c1cnc2c(-c3ccc(C(F)F)cc3)cn(CC3CCC(F)(F)CC3)c2c1` [P-0608, 4-[1-[(4,4-difluorocyclohexyl)methyl]-3-[4-(difluoromethyl)phenyl]pyrrolo[3,2-b]pyridin-6-yl]-3,5-dimethyl-isoxazole], the IC50 in the assay on MV-4-11 cells (setting [4]) was < 1 µM; in the assay on bromodomain (setting [1]), < 10 µM.

Regarding `Cc1ccc(-c2cn([C@H](c3ccccn3)C3CCCC3)c3cc(-c4c(C)noc4C)cnc23)cc1` [P-0822, 4-[1-[(S)-cyclopentyl(2-pyridyl)methyl]-3-(p-tolyl)pyrrolo[3,2-b]pyridin-6-yl]-3,5-dimethyl-isoxazole], the IC50 with bromodomain (setting [1]) is < 10 µM.

`COC(=O)c1ccc(-c2cn(Cc3ccccn3)c3cc(-c4c(C)noc4C)cnc23)cc1OC` [P-0954, methyl 4-[6-(3,5-dimethylisoxazol-4-yl)-1-(2-pyridylmethyl)pyrrolo[3,2-b]pyridin-3-yl]-2-methoxy-benzoate]: the IC50 at BRD4-BD12 (1-477) is < 1 µM.

As a reminder, the IC50 is the concentration needed to halve the response being measured.

For the origin of these results see patent US10519177B2, “Heterocyclic compounds and uses thereof” (Plexxikon Inc., priority 2013, dated 2019).
